Article PMC11409674, “Raffinocyclicin is a novel plasmid-encoded circular bacteriocin produced by Lactococcus raffinolactis with broad-spectrum activity against many gram-positive food pathogens” (Applied and environmental microbiology, 2024)
“Also recorded” adds a separate entry of the source.

What was measured:
proteases = test system: proteases; set-up: method as in 4 sources, ref 33 = [33]; PMID 21948835; doi:10.1128/AEM.06348-11; 33 Masuda Y Ono H Kitagawa H Ito H Mu F Sawa N Zendo T Sonomoto K Identification and characterization of leucocyclicin Q, a novel cyclic bacteriocin produced by Leuconostoc mesenteroides TK41401 Appl ||| ref 27 = [27]; PMID 21057028; doi:10.1128/AEM.01173-10; 27 Borrero J Brede DA Skaugen M Diep DB Herranz C Nes IF Cintas LM Hernández PE Characterization of garvicin ML, a novel circular bacteriocin produced by Lactococcus garvieae DCC43, isolated from mall ||| ref 30 = [30]; PMID 29177092; doi:10.1099/mgen.0.000134; 30 van Heel AJ Montalban-Lopez M Oliveau Q Kuipers OP Genome-guided identification of novel head-to-tail cyclized antimicrobial peptides, exemplified by the discovery of pumilarin Microb Genom 2017 3 ||| ref 29 = [29]; PMID 18552180; doi:10.1128/AEM.00817-08; 29 Martin-Visscher LA van Belkum MJ Garneau-Tsodikova S Whittal RM Zheng J McMullen LM Vederas JC Isolation and characterization of carnocyclin A, a novel circular bacteriocin produced by Carnobacteri; details: cited from earlier work
[1] = test system: Micrococcus luteus APC 4061; assay: spot-on-lawn assay; assay type: cell-based; details: producer spot on M17, chloroform-inactivated, overlay ~7.0 log CFU/mL indicator; 37 °C, Aerobic, BHI; true halo, triplicate
E. faecium DPC 5152 = assay: spot-on-lawn assay; assay type: cell-based, Enterococcus faecium; details: producer spot on M17, chloroform-inactivated, overlay ~7.0 log CFU/mL indicator; 37 °C, Aerobic, BHI; true halo, triplicate
E. faecium DPC 3675 = assay: spot-on-lawn assay; assay type: cell-based, Enterococcus faecium; details: producer spot on M17, chloroform-inactivated, overlay ~7.0 log CFU/mL indicator; 37 °C, Aerobic, BHI; true halo, triplicate
[2] = test system: Leuconostoc mesenteroides KH 24; assay: spot-on-lawn assay; assay type: cell-based; details: producer spot on M17, chloroform-inactivated, overlay ~7.0 log CFU/mL indicator; 30 °C, Aerobic, MRS; true halo, triplicate
[3] = test system: Lactobacillus delbrueckii subsp. bulgaricus LMG 6901; assay: spot-on-lawn assay; assay type: cell-based; details: producer spot on M17, chloroform-inactivated, overlay ~7.0 log CFU/mL indicator; 37 °C, Anaerobic, MRS; true halo, triplicate
S. agalactiae 119 = assay: spot-on-lawn assay; assay type: cell-based, Streptococcus agalactiae; details: producer spot on M17, chloroform-inactivated, overlay ~7.0 log CFU/mL indicator; 37 °C, Aerobic, TSA; true halo, triplicate
E. faecalis V583 = assay: spot-on-lawn assay; assay type: cell-based, Enterococcus faecalis; details: producer spot on M17, chloroform-inactivated, overlay ~7.0 log CFU/mL indicator; 37 °C, Aerobic, BHI; true halo, triplicate
[4] = test system: Pseudomonas aeruginosa PA-01; assay: spot-on-lawn assay; assay type: cell-based; set-up: key: –: no activity; +: 0.5–5 mm inhibition zone; ++: >5–≤10 mm inhibition zone; +++: >10 mm inhibition zone; details: producer spot on M17, chloroform-inactivated, overlay ~7.0 log CFU/mL indicator; 37 °C, Aerobic, BHI; true halo, triplicate
[5] = residual antimicrobial activity after NaOH treatment; assay type: physicochemical; details: NaOH 0.2 M, 37 °C, 4 h
Procedure: The effects of proteinase K (1 mg/mL; Sigma-Aldrich, St Louis, USA), trypsin (1 mg/mL; Merck KgaA, Darmstad, DE), and 0.2 M NaOH on antimicrobial activity were evaluated on agar plates by the methods described previously ([42]). Briefly, 5 µL of an overnight growth suspension of the strain L. raffinolactis APC 3967 was spotted four times on a plate and incubated at optimal conditions. Afterward, the cells were inactivated by chloroform, and 40 µL of the corresponding treatment (protease or NaOH 0.2 M) was spotted around the producer strain. The control was treated with 10 mM PBS, pH 7.4. The plate was incubated at 37°C for 4 h to favor protease activity. The plate was then overlaid with L. lactis HP and incubated at 30°C for 24 h. Results were interpreted by measuring the true halo of the sample, and the following equation calculated the final values of the residual activity: (true halo of treated condition/true halo of the control) × 100 = residual activity (%).

[6] = test system: Staphylococcus epidermidis DSM 3095; assay: spot-on-lawn assay; assay type: cell-based; details: producer spot on M17, chloroform-inactivated, overlay ~7.0 log CFU/mL indicator; 37 °C, Aerobic, BHI; true halo, triplicate
VRE APC 1028 = assay: spot-on-lawn assay; assay type: cell-based, vancomycin-resistant enterococci; details: producer spot on M17, chloroform-inactivated, overlay ~7.0 log CFU/mL indicator; 37 °C, Aerobic, BHI; true halo, triplicate
VRE APC 1026 = assay: spot-on-lawn assay; assay type: cell-based, vancomycin-resistant enterococci; details: producer spot on M17, chloroform-inactivated, overlay ~7.0 log CFU/mL indicator; 37 °C, Aerobic, BHI; true halo, triplicate
[7] = test system: Clostridium perfringens EM124; assay type: cell-based; details: producer spot on M17, chloroform-inactivated, overlay ~7.0 log CFU/mL indicator; 37 °C, Anaerobic, RCM; true halo, triplicate
[8] = test system: Staphylococcus pseudointermedius DK 279; assay: spot-on-lawn assay; assay type: cell-based; set-up: key: –: no activity; +: 0.5–5 mm inhibition zone; ++: >5–≤10 mm inhibition zone; +++: >10 mm inhibition zone; details: producer spot on M17, chloroform-inactivated, overlay ~7.0 log CFU/mL indicator; 37 °C, Aerobic, BHI; true halo, triplicate
[9] = test system: Listeria monocytogenes EDGe; assay: spot-on-lawn assay; assay type: cell-based; details: producer spot on M17, chloroform-inactivated, overlay ~7.0 log CFU/mL indicator; 37 °C, Aerobic, BHI; true halo, triplicate
VRE APC 1029 = assay: spot-on-lawn assay; assay type: cell-based, vancomycin-resistant enterococci; details: producer spot on M17, chloroform-inactivated, overlay ~7.0 log CFU/mL indicator; 37 °C, Aerobic, BHI; true halo, triplicate
Listeria innocua UCC = assay: spot-on-lawn assay; assay type: cell-based; details: producer spot on M17, chloroform-inactivated, overlay ~7.0 log CFU/mL indicator; 37 °C, Aerobic, BHI; true halo, triplicate
[10] = test system: Enterococcus faecium NCD 0942; assay: spot-on-lawn assay; assay type: cell-based; details: producer spot on M17, chloroform-inactivated, overlay ~7.0 log CFU/mL indicator; 37 °C, Aerobic, BHI; true halo, triplicate
E. faecium DSM 26544 = assay: spot-on-lawn assay; assay type: cell-based, Enterococcus faecium; details: producer spot on M17, chloroform-inactivated, overlay ~7.0 log CFU/mL indicator; 37 °C, Aerobic, BHI; true halo, triplicate
Lactococcus lactis HP = assay: spot-on-lawn assay; assay type: cell-based; details: producer spot on M17, chloroform-inactivated, overlay ~7.0 log CFU/mL indicator; 30 °C, Aerobic, GM17; true halo, triplicate
[11] = test system: Enterococcus faecalis ATCC 29200; assay: spot-on-lawn assay; assay type: cell-based; details: producer spot on M17, chloroform-inactivated, overlay ~7.0 log CFU/mL indicator; 37 °C, Aerobic, BHI; true halo, triplicate
S. aureus B2M = assay: spot-on-lawn assay; assay type: cell-based, Staphylococcus aureus; details: producer spot on M17, chloroform-inactivated, overlay ~7.0 log CFU/mL indicator; 37 °C, Aerobic, BHI; true halo, triplicate
S. aureus C5M = assay: spot-on-lawn assay; assay type: cell-based, Staphylococcus aureus; set-up: key: –: no activity; +: 0.5–5 mm inhibition zone; ++: >5–≤10 mm inhibition zone; +++: >10 mm inhibition zone; details: producer spot on M17, chloroform-inactivated, overlay ~7.0 log CFU/mL indicator; 37 °C, Aerobic, BHI; true halo, triplicate
Bacilllus cereus KH 1453 = assay: spot-on-lawn assay; assay type: cell-based; set-up: key: –: no activity; +: 0.5–5 mm inhibition zone; ++: >5–≤10 mm inhibition zone; +++: >10 mm inhibition zone; details: producer spot on M17, chloroform-inactivated, overlay ~7.0 log CFU/mL indicator; 37 °C, Aerobic, BHI; true halo, triplicate
L. lactis ATCC 11454 = assay: spot-on-lawn assay; assay type: cell-based, Lactococcus lactis; details: producer spot on M17, chloroform-inactivated, overlay ~7.0 log CFU/mL indicator; 30 °C, Aerobic, GM17; true halo, triplicate
[12] = test system: Staphylococcus capitis APC 2923; assay: spot-on-lawn assay; assay type: cell-based; set-up: key: –: no activity; +: 0.5–5 mm inhibition zone; ++: >5–≤10 mm inhibition zone; +++: >10 mm inhibition zone; details: producer spot on M17, chloroform-inactivated, overlay ~7.0 log CFU/mL indicator; 37 °C, Aerobic, BHI; true halo, triplicate
[13] = test system: Staphylococcus aureus DPC 5645; assay: spot-on-lawn assay; assay type: cell-based; set-up: key: –: no activity; +: 0.5–5 mm inhibition zone; ++: >5–≤10 mm inhibition zone; +++: >10 mm inhibition zone; details: producer spot on M17, chloroform-inactivated, overlay ~7.0 log CFU/mL indicator; 37 °C, Aerobic, BHI; true halo, triplicate
[14] = test system: Streptococcus agalactiae 35; assay: spot-on-lawn assay; assay type: cell-based; details: producer spot on M17, chloroform-inactivated, overlay ~7.0 log CFU/mL indicator; 37 °C, Aerobic, TSA; true halo, triplicate
[15] = test system: Klebsiella pneumoniae C02.b; assay: spot-on-lawn assay; assay type: cell-based; set-up: key: –: no activity; +: 0.5–5 mm inhibition zone; ++: >5–≤10 mm inhibition zone; +++: >10 mm inhibition zone; details: producer spot on M17, chloroform-inactivated, overlay ~7.0 log CFU/mL indicator; 37 °C, Aerobic, BHI; true halo, triplicate
Escherichia sp. UCC = assay: spot-on-lawn assay; assay type: cell-based; set-up: key to Activity (inhibition zone): –: no activity; +: 0.5–5 mm inhibition zone; ++: >5–≤10 mm inhibition zone; +++: >10 mm inhibition zone
Procedure: The antimicrobial activity of the strain L. raffinolactis APC 3967 was evaluated on M17 medium by the agar-spot test as described by Giambiagi-deMarval et al. ([42]) with minor modifications ([42]). Briefly, 5 µL of an overnight growth suspension of the producer strain was spotted on the surface of the agar plate and incubated overnight at 30°C. Cells were inactivated by chloroform and overlaid with 3 mL soft agar (0.75% wt/vol) containing the target strain (~7.0 log CFU/mL), and these plates were incubated overnight. The growth conditions of every target strain used in this assay are outlined in Table 1. The interpretation of inhibition was performed by measuring the true halo of the inhibitory zone (total halo – spot size = true halo) and was classified into one of four groups: (i) no inhibition (0 mm); (ii) weak inhibition (0.5–5 mm); (iii) moderate inhibition (>5–≤10 mm); and (iv) strong inhibition (>10 mm). These assays were performed in triplicate.

VRE APC 1027 = assay: spot-on-lawn assay; assay type: cell-based, vancomycin-resistant enterococci; details: producer spot on M17, chloroform-inactivated, overlay ~7.0 log CFU/mL indicator; 37 °C, Aerobic, BHI; true halo, triplicate

pumilarin
sensitivity to proteolytic activity (proteases): low-sensitivity profile

raffinocyclicin
Activity (inhibition zone) [1]: ++ (>5–≤10 mm inhibition zone) | Activity (inhibition zone) (E. faecium DPC 5152): + (0.5–5 mm inhibition zone) | Activity (inhibition zone) (E. faecium DPC 3675): ++ (>5–≤10 mm inhibition zone) | Activity (inhibition zone) [2]: + (0.5–5 mm inhibition zone) | Activity (inhibition zone) [3]: + (0.5–5 mm inhibition zone) | Activity (inhibition zone) (S. agalactiae 119): ++ (>5–≤10 mm inhibition zone) | Activity (inhibition zone) (E. faecalis V583): + (0.5–5 mm inhibition zone) | Activity (inhibition zone) [4]: – | antimicrobial activity after NaOH treatment, in words ([5]; indicator L. lactis HP): resistant; also recorded: remained unchanged | Phenotype ([5]; 40 µL spotted around chloroform-inactivated producer spot, overlay L. lactis HP, 30 °C, 24 h): R | Residual activity ([5]; 40 µL spotted around chloroform-inactivated producer spot, overlay L. lactis HP, 30 °C, 24 h, true halo treated/control (10 mM PBS pH 7.4) × 100): 100% | Activity (inhibition zone) [6]: + (0.5–5 mm inhibition zone) | Activity (inhibition zone) (VRE APC 1028): ++ (>5–≤10 mm inhibition zone) | Activity (inhibition zone) (VRE APC 1026): ++ (>5–≤10 mm inhibition zone) | Activity (inhibition zone) [7]: +++ (>10 mm inhibition zone) | Activity (inhibition zone) [8]: – | Activity (inhibition zone) [9]: + (0.5–5 mm inhibition zone) | Activity (inhibition zone) (VRE APC 1029): ++ (>5–≤10 mm inhibition zone) | Activity (inhibition zone) (Listeria innocua UCC): ++ (>5–≤10 mm inhibition zone) | Activity (inhibition zone) [10]: ++ (>5–≤10 mm inhibition zone) | Activity (inhibition zone) (E. faecium DSM 26544): + (0.5–5 mm inhibition zone) | Activity (inhibition zone) (Lactococcus lactis HP): +++ (>10 mm inhibition zone) | Activity (inhibition zone) [11]: ++ (>5–≤10 mm inhibition zone) | Activity (inhibition zone) (S. aureus B2M): + (0.5–5 mm inhibition zone) | Activity (inhibition zone) (S. aureus C5M): – | Activity (inhibition zone) (Bacilllus cereus KH 1453): – | Activity (inhibition zone) (L. lactis ATCC 11454): +++ (>10 mm inhibition zone) | Activity (inhibition zone) [12]: – | Activity (inhibition zone) [13]: – | Activity (inhibition zone) [14]: ++ (>5–≤10 mm inhibition zone) | Activity (inhibition zone) [15]: – | Activity (inhibition zone) (Escherichia sp. UCC; producer spot on M17, chloroform-inactivated, overlay ~7.0 log CFU/mL indicator, 37 °C, Aerobic, BHI, true halo, triplicate): – | inhibition in the spot-on-lawn assay, in words (Escherichia sp. UCC; spot-on-lawn assay, producer L. raffinolactis APC 3967): No inhibition | Activity (inhibition zone) (VRE APC 1027): ++ (>5–≤10 mm inhibition zone)
